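Five compound concentrations were applied to cells in 96-well plates for 48 hours; endpoints were derived by simple linear interpolation of the resulting dose-response curve. GI50: concentration for 50% inhibition of growth.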 Calls of active or inactive are those of the source. Cut-off read from the data, not from the text of the source: active = GI50 up to about 1.1 µM and inactive = higher.

Some test systems named below: OVCAR-5; SR; M14; 786-0; NCI-H226; HCT-116; IGROV-1; SF-295; U-251; RPMI-8226; NCI-H23; UACC-257; SN12C; CCRF-CEM; OVCAR-8; UO-31; OVCAR-4; MCF7; T47D.
Test in all cases: NCI anticancer screen, dose series, 48 h

`O=C1OC(=O)C2C3CCC(O3)C12` (stereo unspecified): the GI50 in the assay on OVCAR-5, in the assay with SR, in the assay on M14, in the assay with 786-0, in the assay with NCI-H226 and in the assay with HCT-116 was > 100 µM (inactive) each time. For the same compound, the GI50 in the assay with IGROV-1, in the assay on SF-295, in the assay on U-251, with RPMI-8226, in the assay on NCI-H23 and in the assay with UACC-257 was > 100 µM (inactive) in each case. For the same compound, the GI50 in the assay on SN12C, in the assay on CCRF-CEM, with OVCAR-8 and in the assay on UO-31 was > 100 µM (inactive) each time.
Take `O=[N+]([O-])c1ccc(/C=C(/c2ccc([N+](=O)[O-])o2)S(=O)(=O)c2ccccc2)cc1`: the GI50 with OVCAR-4 is 57 µM (inactive); with OVCAR-5, > 100 µM (inactive); with SR it was 16.4 µM (inactive); in the assay on M14, 56.2 µM (inactive); in the assay on 786-0, > 100 µM (inactive); in the assay with NCI-H226, 13.4 µM (inactive). The GI50 is 30.9 µM (inactive) with HCT-116; 75.5 µM (inactive) in the assay with IGROV-1; > 100 µM (inactive) in the assay on SF-295; 73.5 µM (inactive) with U-251; 13.7 µM (inactive) in the assay with RPMI-8226; 59 µM (inactive) in the assay on NCI-H23. In addition, the GI50 is 29.4 µM (inactive) with UACC-257; 29.4 µM (inactive) in the assay on OVCAR-8; 40.8 µM (inactive) in the assay with MCF7; > 100 µM (inactive) with T47D; > 100 µM (inactive) in the assay on UO-31.
Consider `O=C(c1ccc(Cl)cc1)c1ccc(OCC(=O)N2CCN(c3ccccc3)CC2)cc1`, for which the GI50 was > 100 µM (inactive) in the assay on OVCAR-4; > 100 µM (inactive) in the assay on OVCAR-5; 84.5 µM (inactive) in the assay on SR; > 100 µM (inactive) in the assay with M14; > 100 µM (inactive) in the assay with 786-0; > 100 µM (inactive) with NCI-H226. The GI50 in the assay on HCT-116 is > 100 µM (inactive); in the assay on IGROV-1 it was > 100 µM (inactive); with SF-295, > 100 µM (inactive); in the assay on U-251 it was > 100 µM (inactive); in the assay on RPMI-8226, > 100 µM (inactive); with NCI-H23 it was 53.7 µM (inactive). In addition, the GI50 in the assay with UACC-257 was 61 µM (inactive); in the assay with SN12C, > 100 µM (inactive); in the assay with CCRF-CEM, > 100 µM (inactive); in the assay on OVCAR-8 it was > 100 µM (inactive); with UO-31 it was > 100 µM (inactive).
With `COC1OC(C)C(OC(=O)C(C)(C)C)C(C)(O)C1O` (stereo unspecified), the GI50 with OVCAR-4 was > 100 µM (inactive); in the assay with OVCAR-5 it was > 100 µM (inactive); in the assay on SR, > 100 µM (inactive); in the assay on M14, > 100 µM (inactive); in the assay on 786-0, > 100 µM (inactive); in the assay with NCI-H226, > 10 µM (inactive). The GI50 with HCT-116, with IGROV-1, with SF-295, in the assay on U-251, in the assay with RPMI-8226 and in the assay with NCI-H23 was > 100 µM (inactive) throughout. Besides, the GI50 with UACC-257, with SN12C, with CCRF-CEM and in the assay on OVCAR-8 was > 100 µM (inactive) throughout.
In the case of `C=CCOC(C)n1c(C)cc(=O)n(C(C)OCC=C)c1=O` (stereo unspecified), the GI50 in the assay with OVCAR-4, in the assay on SR, in the assay with M14, in the assay with 786-0, in the assay with NCI-H226 and in the assay on HCT-116 was > 100 µM (inactive) in each case. Also, the GI50 with IGROV-1, with SF-295, in the assay with U-251, in the assay with RPMI-8226, with NCI-H23 and in the assay with UACC-257 was > 100 µM (inactive) in each case. Further, the GI50 in the assay on SN12C, with CCRF-CEM, in the assay on OVCAR-8 and with UO-31 was > 100 µM (inactive) each time.
`CCOC(=O)c1ncn2c1[nH]c(=O)c1ccccc12`: the GI50 with OVCAR-4, in the assay on OVCAR-5, in the assay with SR, with M14, in the assay on 786-0 and in the assay on NCI-H226 was > 100 µM (inactive) each time. Further, the GI50 in the assay with HCT-116, with IGROV-1, in the assay with SF-295, with U-251, in the assay with RPMI-8226 and in the assay with NCI-H23 was > 100 µM (inactive) each time. Moreover, the GI50 in the assay on SN12C, in the assay with CCRF-CEM, in the assay with OVCAR-8 and with UO-31 was > 100 µM (inactive) in each case.
`CS/C(=N\C(=S)Nc1ccccc1)Nc1ccccc1`: the GI50 in the assay on OVCAR-4 was 26.3 µM (inactive); in the assay on OVCAR-5, 23.6 µM (inactive); with SR it was 15.4 µM (inactive); in the assay on M14, 21.4 µM (inactive); with 786-0 it was > 10 µM (inactive); with NCI-H226 it was 18.5 µM (inactive). The GI50 in the assay on HCT-116 is > 10 µM (inactive); with IGROV-1, 16.4 µM (inactive); in the assay with SF-295, 21.5 µM (inactive); in the assay on U-251 it was 19.8 µM (inactive); in the assay on RPMI-8226 it was 12.8 µM (inactive); with NCI-H23, 29.4 µM (inactive). In addition, the GI50 is > 10 µM (inactive) in the assay on UACC-257, 18.3 µM (inactive) in the assay with SN12C, 25.4 µM (inactive) in the assay with OVCAR-8 and 11.6 µM (inactive) in the assay on UO-31.
In the case of `O=C1C=C(c2c(O)ccc3ccccc23)c2cc(O)ccc2C1=O`, the GI50 in the assay with OVCAR-4 was 11.1 µM (inactive); in the assay with OVCAR-5 it was 21.1 µM (inactive); in the assay on SR it was 6.59 µM (inactive); in the assay with M14, 16.4 µM (inactive); in the assay on 786-0, 18.7 µM (inactive); in the assay with NCI-H226, 20.9 µM (inactive). For the same compound, the GI50 is 16 µM (inactive) with HCT-116; 13.7 µM (inactive) with IGROV-1; 18.5 µM (inactive) with SF-295; 14.8 µM (inactive) in the assay with U-251; 4.47 µM (inactive) in the assay with RPMI-8226; 15.1 µM (inactive) with NCI-H23. The GI50 in the assay with UACC-257 is 17.9 µM (inactive); with SN12C, 18.2 µM (inactive); in the assay with OVCAR-8, 11.4 µM (inactive); with UO-31 it was 19.6 µM (inactive).
As for `CC(C(=O)n1c2ccccc2c2ccccc21)N(c1ccccc1)c1ccccc1` (stereo unspecified), the GI50 in the assay with OVCAR-5 was 18.4 µM (inactive); with SR, 8.93 µM (inactive); with M14, 16.7 µM (inactive); with 786-0, 16.6 µM (inactive); with NCI-H226, 23.7 µM (inactive); in the assay on HCT-116 it was 18.7 µM (inactive). In addition, the GI50 was 18.3 µM (inactive) in the assay on IGROV-1; 19.4 µM (inactive) in the assay with SF-295; 17.8 µM (inactive) in the assay on U-251; 16.3 µM (inactive) with RPMI-8226; 18.9 µM (inactive) with NCI-H23; 17.9 µM (inactive) in the assay with UACC-257. The GI50 was 19.9 µM (inactive) with SN12C, 1.64 µM (inactive) in the assay with CCRF-CEM, 18.6 µM (inactive) with OVCAR-8 and 20.6 µM (inactive) with UO-31.
`COc1ccc(NS(=O)(=O)c2ccc(/N=C3\C=C(Nc4ccc(S(=O)(=O)Nc5ccc(OC)nn5)cc4)C(=O)c4ccccc43)cc2)nn1`: the GI50 in the assay on OVCAR-4 is 18.3 µM (inactive); in the assay with OVCAR-5 it was 19.1 µM (inactive); in the assay on SR it was 83.6 µM (inactive); in the assay on M14, 17.5 µM (inactive); in the assay on 786-0 it was 17.8 µM (inactive); with NCI-H226, 19.3 µM (inactive). The GI50 in the assay on HCT-116 was 17.5 µM (inactive); in the assay with IGROV-1, 23.9 µM (inactive); in the assay on SF-295, 17.1 µM (inactive); in the assay with U-251 it was 18 µM (inactive); with RPMI-8226, 53.7 µM (inactive); with NCI-H23, 16.2 µM (inactive). Moreover, the GI50 in the assay with UACC-257 was 16.9 µM (inactive); with SN12C it was 18.1 µM (inactive); in the assay on CCRF-CEM it was > 100 µM (inactive); in the assay with OVCAR-8, 17.2 µM (inactive); in the assay on UO-31, 19.7 µM (inactive).
Turning to `COc1cc(/C=C\c2ccc(OC(C)=O)cc2)cc(OC)c1OC`, the GI50 is 19.1 µM (inactive) in the assay on OVCAR-4; 62.7 µM (inactive) in the assay on OVCAR-5; 5.04 µM (inactive) in the assay on SR; 4.49 µM (inactive) in the assay on M14; 3.56 µM (inactive) in the assay on 786-0; 33.7 µM (inactive) in the assay with NCI-H226. Moreover, the GI50 in the assay with HCT-116 was 4.43 µM (inactive); in the assay with IGROV-1, 7.59 µM (inactive); in the assay on U-251 it was 2.37 µM (inactive); in the assay with RPMI-8226 it was 0.587 µM (active); with NCI-H23, 0.352 µM (active); with UACC-257, 2.48 µM (inactive). In addition, the GI50 in the assay on SN12C was 4.22 µM (inactive); in the assay with CCRF-CEM, 4.06 µM (inactive); with OVCAR-8 it was 4.03 µM (inactive); with UO-31, 4.08 µM (inactive).
As for `O=C1OC(CC(=O)c2ccccc2Cl)C(Cl)=C1Cl` (stereo unspecified), the GI50 in the assay on OVCAR-4, with OVCAR-5, with SR, in the assay on M14, in the assay on 786-0 and with NCI-H226 was > 100 µM (inactive) each time. Further, the GI50 with HCT-116, with IGROV-1, in the assay with SF-295, in the assay with U-251, in the assay on RPMI-8226 and in the assay with NCI-H23 was > 100 µM (inactive) in each case. The GI50 with UACC-257 was > 100 µM (inactive); with SN12C, > 100 µM (inactive); with CCRF-CEM it was 48.3 µM (inactive); in the assay on OVCAR-8, > 100 µM (inactive); in the assay with UO-31, > 100 µM (inactive).

Source of the values: ChEMBL document CHEMBL1201862, “PubChem BioAssay data set” (2004).
